Test results: patent publication US7884136B2, “Modified-release formulations of a bupropion salt” (Biovail Laboratories International S.R.L., priority 2005, dated 2011)

Experiments:
[1] = Accelerated stability study of bupropion HBr, closed bottles, 40° C./75% RH, 3 and 6 months, HPLC; format: physicochemical; conditions: Batch D00896, 40° C., R.H. 75%; for Chromatographic purity B) (HPLC) 4) 2-N-(tert-Butyl)-aminopropiophenone / Chromatographic purity B) (HPLC) 5) single unknown impurity (each): LOQ 0.02%, LOD 0.002%; for Chromatographic purity A) (HPLC) 1) 3′-Chloropropiophenone / Chromatographic purity A) (HPLC) 3) 3′-Chlorobenzoic acid / Chromatographic purity A) (HPLC) 2) 3′-Chloro-2-bromopropiophenone: LOQ 0.05%; for Chromatographic purity A) (HPLC) 1) 3′-Chloropropiophenone / Chromatographic purity A) (HPLC) 3) 3′-Chlorobenzoic acid: LOD 0.01%; for Chromatographic purity A) (HPLC) 2) 3′-Chloro-2-bromopropiophenone: LOD 0.04%
Protocol: The samples were prepared in closed bottles and placed in the stability chamber. HPLC analysis was conducted on the samples prior to placing them in the stability chamber (time 0), and after 3 months and 6 months. The amounts of the main degradation products present at time 0 were compared with those amounts present after 3 months and 6 months. […] For each sample tested, at each time period, two different HPLC assays were run. The first assay labelled chromatographic purity A, measured the percentage of three impurities 3′chloropropiophenone, 3′-Chloro-2-bromopropiophenone and 3′-Chlorobenzoic acid. The second assay, labelled chromatographic purity B, measured the percentage of 2-N-(tert-Butyl)-aminopropiophenone, a single unknown impurity and the total unknown impurities.

[2] = Shelf life stability program of bupropion HBr, 25° C./60% RH, 3 and 6 months, HPLC; format: physicochemical; conditions: Batch D00894, 25° C., R.H. 60%; for Chromatographic purity B) (HPLC) 4) 2-N-(tert-Butyl)-aminopropiophenone / Chromatographic purity B) (HPLC) 5) single unknown impurity (each): LOQ 0.02%, LOD 0.002%; for Chromatographic purity A) (HPLC) 1) 3′-Chloropropiophenone / Chromatographic purity A) (HPLC) 3) 3′-Chlorobenzoic acid / Chromatographic purity A) (HPLC) 2) 3′-Chloro-2-bromopropiophenone: LOQ 0.05%; for Chromatographic purity A) (HPLC) 1) 3′-Chloropropiophenone / Chromatographic purity A) (HPLC) 3) 3′-Chlorobenzoic acid: LOD 0.01%; for Chromatographic purity A) (HPLC) 2) 3′-Chloro-2-bromopropiophenone: LOD 0.04%
Protocol: The stability of bupropion HBr was studied over a longer term under conditions meant to approximate standard storage or shelf conditions. Samples were prepared in closed containers and subjected to long-term storage at 25° C.+2° C. and 60%+5% RH in a stability chamber. The samples were analyzed by HPLC prior to being placed in the stability chamber (time 0) and after 3 months and 6 months. The amounts of the main degradation products present at time 0 were compared with the amounts present at 3 months and 6 months. As shown in Table 77-79 three different batches of bupropion HBr were tested. As in Example 10 each sample was tested under two HPLC assay conditions to identify 6 impurities or groups of impurities as described in Example 10.

SMILES: Br.CC(NC(C)(C)C)C(=O)c1cccc(Cl)c1 (stereo not drawn) [Bupropion•HBr]
- Assay (HPLC) ([1]; 3 month): 100.0 % on d.b.
- Chromatographic purity (HPLC: A + B) Total impurities ([1]; 3 month): 0.1%
- Chromatographic purity B) (HPLC) 6) total unknown impurities ([1]; 3 month): 6) 0.05%
- Description (white or almost white crystalline powder) ([1]; 3 month): conform
- Identification IR, HPLC ([1]; 3 month): positive
- Water content (K.F.) ([1]; 3 month): 0.11%
- Chromatographic purity B) (HPLC) 4) 2-N-(tert-Butyl)-aminopropiophenone ([1]; 3 month): 4) 0.03%
- Chromatographic purity B) (HPLC) 5) single unknown impurity (each) ([1]; 3 month): 5) 0.04%
- Chromatographic purity A) (HPLC) 1) 3′-Chloropropiophenone ([1]; 3 month): 1) n.q.
- Chromatographic purity A) (HPLC) 3) 3′-Chlorobenzoic acid ([1]; 3 month): 3) n.q.
- Chromatographic purity A) (HPLC) 2) 3′-Chloro-2-bromopropiophenone ([1]; 3 month): 2) n.d.
- Assay (HPLC) ([1]; 6 months): 100.4 % on d.b.
- Chromatographic purity (HPLC: A + B) Total impurities ([1]; 6 months): 0.1%
- Chromatographic purity B) (HPLC) 6) total unknown impurities ([1]; 6 months): 6) n.q.
- Description (white or almost white crystalline powder) ([1]; 6 months): conform
- Identification IR, HPLC ([1]; 6 months): positive
- Water content (K.F.) ([1]; 6 months): 0.04%
- Chromatographic purity B) (HPLC) 4) 2-N-(tert-Butyl)-aminopropiophenone ([1]; 6 months): 4) 0.04%
- Chromatographic purity B) (HPLC) 5) single unknown impurity (each) ([1]; 6 months): 5) n.q.
- Chromatographic purity A) (HPLC) 1) 3′-Chloropropiophenone ([1]; 6 months): 1) 0.05%
- Chromatographic purity A) (HPLC) 3) 3′-Chlorobenzoic acid ([1]; 6 months): 3) n.q.
- Chromatographic purity A) (HPLC) 2) 3′-Chloro-2-bromopropiophenone ([1]; 6 months): 2) n.d.
- Assay (HPLC) ([1]; Time 0): 99.3 % on d.b.
- Chromatographic purity (HPLC: A + B) Total impurities ([1]; Time 0): 0.1%
- Chromatographic purity B) (HPLC) 6) total unknown impurities ([1]; Time 0): 6) 0.05%
- Description (white or almost white crystalline powder) ([1]; Time 0): conform
- Identification IR, HPLC ([1]; Time 0): positive
- Water content (K.F.) ([1]; Time 0): 0.06%
- Chromatographic purity B) (HPLC) 4) 2-N-(tert-Butyl)-aminopropiophenone ([1]; Time 0): 4) 0.04%
- Chromatographic purity B) (HPLC) 5) single unknown impurity (each) ([1]; Time 0): 5) 0.05%
- Chromatographic purity A) (HPLC) 1) 3′-Chloropropiophenone ([1]; Time 0): 1) n.d.
- Chromatographic purity A) (HPLC) 3) 3′-Chlorobenzoic acid ([1]; Time 0): 3) n.q.
- Chromatographic purity A) (HPLC) 2) 3′-Chloro-2-bromopropiophenone ([1]; Time 0): 2) n.d.
- Assay (HPLC) ([2]; 3 months): 99.4 % on d.b.
- Chromatographic purity (HPLC: A + B) Total impurities ([2]; 3 months): 0.1%
- Chromatographic purity B) (HPLC) 6) total unknown impurities ([2]; 3 months): 6) 0.05%
- Description (white or almost white crystalline powder) ([2]; 3 months): conform
- Identification IR, HPLC ([2]; 3 months): positive
- Water content (K.F.) ([2]; 3 months): 0.05%
- Chromatographic purity B) (HPLC) 4) 2-N-(tert-Butyl)-aminopropiophenone ([2]; 3 months): 4) 0.03%
- Chromatographic purity B) (HPLC) 5) single unknown impurity (each) ([2]; 3 months): 5) 0.04%
- Chromatographic purity A) (HPLC) 1) 3′-Chloropropiophenone ([2]; 3 months): 1) n.q.
- Chromatographic purity A) (HPLC) 3) 3′-Chlorobenzoic acid ([2]; 3 months): 3) n.q.
- Chromatographic purity A) (HPLC) 2) 3′-Chloro-2-bromopropiophenone ([2]; 3 months): 2) n.d.
- Assay (HPLC) ([2]; 6 months): 100.2 % on d.b.
- Chromatographic purity (HPLC: A + B) Total impurities ([2]; 6 months): 0.1%
- Chromatographic purity B) (HPLC) 6) total unknown impurities ([2]; 6 months): 6) 0.02%
- Description (white or almost white crystalline powder) ([2]; 6 months): conform
- Identification IR, HPLC ([2]; 6 months): positive
- Water content (K.F.) ([2]; 6 months): 0.06%
- Chromatographic purity B) (HPLC) 4) 2-N-(tert-Butyl)-aminopropiophenone ([2]; 6 months): 4) 0.05%
- Chromatographic purity B) (HPLC) 5) single unknown impurity (each) ([2]; 6 months): 5) n.q.
- Chromatographic purity A) (HPLC) 1) 3′-Chloropropiophenone ([2]; 6 months): 1) 0.05%
- Chromatographic purity A) (HPLC) 3) 3′-Chlorobenzoic acid ([2]; 6 months): 3) n.q.
- Chromatographic purity A) (HPLC) 2) 3′-Chloro-2-bromopropiophenone ([2]; 6 months): 2) n.d.
- Assay (HPLC) ([2]; 9 months): 99.5 % on d.b.
- Chromatographic purity (HPLC: A + B) Total impurities ([2]; 9 months): n.q.
- Chromatographic purity B) (HPLC) 6) total unknown impurities ([2]; 9 months): 6) n.q.
- Description (white or almost white crystalline powder) ([2]; 9 months): conform
- Identification IR, HPLC ([2]; 9 months): positive
- Water content (K.F.) ([2]; 9 months): 0.05%
- Chromatographic purity B) (HPLC) 4) 2-N-(tert-Butyl)-aminopropiophenone ([2]; 9 months): 4) n.d.
- Chromatographic purity B) (HPLC) 5) single unknown impurity (each) ([2]; 9 months): 5) n.q.
- Chromatographic purity A) (HPLC) 1) 3′-Chloropropiophenone ([2]; 9 months): 1) n.q.
- Chromatographic purity A) (HPLC) 3) 3′-Chlorobenzoic acid ([2]; 9 months): 3) n.q.
- Chromatographic purity A) (HPLC) 2) 3′-Chloro-2-bromopropiophenone ([2]; 9 months): 2) n.d.
